# According to patent US9708314B2, “Heterocyclic amide compound” (NISSAN CHEMICAL INDUSTRIES, LTD., priority 2013, dated 2017):
# Assays:
# Format in all cases: in vivo
# [1] = test system: Galium spurium; test: Test Example 4: herbicidal effect by application to foliage (diluvial soil, plastic box); details: Application herbicide amount 320 g/ha
# In short: (§1)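 Plants were grown in sterilized diluvial soil in a greenhouse at 25-30° C for 14 days, then sprayed on stems and leaves with water-diluted emulsion formulation at set rates in g/ha. Weed control and crop injury were scored 3 weeks after treatment on a 0-5 herbicidal-ratio scale, from 0 (≤5%) to 5 (≥90%).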
# [2] = test system: Digitaria ciliaris; test: as above; details: Application herbicide amount 320 g/ha
# In short: as §1
# [3] = test system: directly sowed Oryza sativa; test: Test Example 3: effect on crop by application to foliage (Wagner pot, water depth 0.1-0.5 cm); details: Nineteenth Table; application to foliage; application herbicide amount 320 g/ha
# In short: (§2)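 Wagner pot foliar test: sow, grow 14 d (25–30 °C), spray diluted emulsion at set g/ha, score after 3 wk; 0 ≤5%, 5 ≥90% herbicidal ratio.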
# [4] = test system: Scirpus juncoides; test: Test Example 1: herbicidal activity, application before weed generation in submerged conditions; details: Application herbicide amount 320 g/ha; Seventeenth Table
# In short: (§3)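 Pre-emergence application to water surface of submerged pots (4 cm depth, alluvial soil) on sowing day, with 2.5-leaf rice transplanted; emulsion diluted to g/ha rates. Grown in greenhouse at 25–30 °C; 0–5 herbicidal/crop-effect score after three weeks.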
# [5] = test system: Monochoria vaginalis; test: as above; details: Application herbicide amount 320 g/ha; Seventeenth Table
# In short: as §3
# [6] = test system: Echinochloa oryzacola Vasing.; test: as above; details: Application herbicide amount 320 g/ha; Seventeenth Table
# In short: as §3
# [7] = test system: Leptochloa chinensis; test: Test Example 3: herbicidal effect by application to foliage (Wagner pot, water depth 0.1-0.5 cm); details: Nineteenth Table; application to foliage; application herbicide amount 320 g/ha
# In short: as §2
# [8] = test system: Echinochloa crus-galli var. crus-galli; test: as above; details: Nineteenth Table; application to foliage; application herbicide amount 320 g/ha
# In short: as §2
# [9] = test system: Cyperus difformis; test: as above; details: Nineteenth Table; application to foliage; application herbicide amount 320 g/ha
# In short: as §2
Structure (SMILES),Q [1],F [2],b (effect on crop grade) [3],B: Scirpus juncoides (herbicidal effect grade) [4],C: Monochoria vaginalis (herbicidal effect grade) [5],A: Echinochloa oryzicola Vasing. (herbicidal effect grade) [6],D (herbicidal effect grade) [7],H (herbicidal effect grade) [8],E (herbicidal effect grade) [9]
CC(C)Sc1nnc2c(C(=O)Nc3nnco3)ccc(C(F)(F)F)n12 [1-091],4 (Herbicidal ratio of 70% or more and less than 90%),5 (Herbicidal ratio of 90% or more (almost completely withered)),0 (Herbicidal ratio of 5% or less (almost no effect)),5 (Herbicidal ratio of 90% or more (almost completely withered)),5 (Herbicidal ratio of 90% or more (almost completely withered)),5 (Herbicidal ratio of 90% or more (almost completely withered)),5 (Herbicidal ratio of 90% or more (almost completely withered)),5 (Herbicidal ratio of 90% or more (almost completely withered)),5 (Herbicidal ratio of 90% or more (almost completely withered))
CCC[S+]([O-])c1nnc2c(C(=O)Nc3nnc(C)o3)ccc(C(F)(F)F)n12 (stereo not drawn) [1-092],3 (Herbicidal ratio of 40% or more and less than 70%),5 (Herbicidal ratio of 90% or more (almost completely withered)),4 (Herbicidal ratio of 70% or more and less than 90%),5 (Herbicidal ratio of 90% or more (almost completely withered)),4 (Herbicidal ratio of 70% or more and less than 90%),5 (Herbicidal ratio of 90% or more (almost completely withered)),5 (Herbicidal ratio of 90% or more (almost completely withered)),5 (Herbicidal ratio of 90% or more (almost completely withered)),5 (Herbicidal ratio of 90% or more (almost completely withered))
Cc1nnc(NC(=O)c2ccc(C(F)(F)F)n3c(SCC(C)C)nnc23)o1 [1-093],1 (Herbicidal ratio of 5% or more and less than 20%),5 (Herbicidal ratio of 90% or more (almost completely withered)),1 (Herbicidal ratio of 5% or more and less than 20%),4 (Herbicidal ratio of 70% or more and less than 90%),3 (Herbicidal ratio of 40% or more and less than 70%),5 (Herbicidal ratio of 90% or more (almost completely withered)),5 (Herbicidal ratio of 90% or more (almost completely withered)),4 (Herbicidal ratio of 70% or more and less than 90%),4 (Herbicidal ratio of 70% or more and less than 90%)
CCC(C)Sc1nnc2c(C(=O)Nc3nnc(C)o3)ccc(C(F)(F)F)n12 (stereo not drawn) [1-094],0 (Herbicidal ratio of 5% or less (almost no effect)),5 (Herbicidal ratio of 90% or more (almost completely withered)),1 (Herbicidal ratio of 5% or more and less than 20%),5 (Herbicidal ratio of 90% or more (almost completely withered)),3 (Herbicidal ratio of 40% or more and less than 70%),5 (Herbicidal ratio of 90% or more (almost completely withered)),4 (Herbicidal ratio of 70% or more and less than 90%),5 (Herbicidal ratio of 90% or more (almost completely withered)),4 (Herbicidal ratio of 70% or more and less than 90%)
